Tests used:
[1] = system: platelet rich plasma (PRP); test: Collagen-induced platelet aggregation in platelet rich plasma (light aggregometry); type: cell-based, human
Description: PRP and WP (2.5×10^8 platelets ml^−1) were prepared from blood. Briefly 36 ml whole blood was collected into 4 ml of 3.15% sodium citrate; this was centrifuged at 250 ¥g for 20 min (with gentle acceleration and deceleration). At this point PRP, which had separated from white blood cells and red blood cells, was gently removed. When WP were required this PRP was centrifuged at 700 g for 10 min (with gentle acceleration and deceleration) in the presence of prostacyclin. The platelet-poor plasma (PPP) was removed and the platelet pellet was washed three times with Tyrode's buffer, before being re-suspended in Tyrode's buffer to a concentration of 2.5 ¥108 platelets/ml.
Platelet aggregation was measured by light aggregometry. […] Aggregation was initiated by the addition of agonists, and monitored by Aggro-Link software for at least 6 min.
To study the aggregatory potency of ADP, the concentration-response (0.3-10 μM) curves were generated. Collagen at different concentrations (2-5 μg/ml) was also used to induce platelet aggregation. Submaximal concentrations of agonists, i.e. the concentrations that gave approximately 95% of the maximal aggregation were used to study the effects of inhibitors of aggregation. Aspirin and aspirin prodrugs was incubated for various intervals prior to the addition of aggregating agents.
Eserine (in DMSO, 10 μM, giving a final concentration≦0.25% DMSO, which pilot studies had determined not to affect platelet aggregation) was preincubated with PRP or WP for 5 min in the aggregometer with stirring at 900 r.p.m. before the addition of test compounds (ST0701-05), which were incubated in PRP or WP for a further 10 min prior to the addition of an agonist (10 μM ADP or 5 μg/ml Collagen) to induce platelet aggregation.

[2] = system: TxB2; test: TxB2 suppression after single oral gavage dose; type: in vivo, cynomolgus monkey; details: Phase 2A, single oral gavage, ST0702 9.6 mg/kg, aspirin 4.2 mg/kg, 1 and 24 hours post dosing
[3] = system: HT1080 cells; test: Tumour cell-induced platelet aggregation (TCIPA), static conditions, HT1080; type: cell-based, human; details: static, WP, 300 and 500 μM, HT1080 2×10^5/ml
Description: Three human tumor cell lines, 59M ovarian adenocarcinoma, Caco-2 colon adenocarcinoma and HT1080 fibrocarcinoma cells, were obtained from the European Cell Culture Collection. Cell lines were cultured as monolayers in 75 ml culture flasks at 37° C. in a humidified atmosphere with 5% CO2. 59M cells and HT1080 were cultured in Dulbecco's […] (DMEM) supplemented with 10% fetal bovine serum (FBS) and gentamycin (0.05 mg/ml), penicillin (0.06 mg/ml), and streptomycin (0.01 mg/ml). Caco-2 cell line was cultured in Minimum Essential Medium (MEM) supplemented with 20% FBS and the same antibiotics as above. The cells were supplied with fresh medium and subcultured three times each week.
Washed platelet suspensions (2.5×10^11 platelets 1^−1) were prepared from blood an mixed with the anticoagulant sodium citrate (0.315% final concentration).
The interactions between platelets and tumor cells were measured by light aggregometry (Alonso-Escolano et al., 2004; Jurasz et al., 2001b; Radomski et al., 1991). Briefly, washed platelet samples (2.5×10^8/ml) were placed in an eight channel PAP 8 aggregometer (BIO/DATA CORPORATION, Horsham, Pa., U.S.A.) and incubated for 10 min at 37° C., with stirring at 900 r.p.m., prior to the addition of aggregating agents. […] TCIPA was initiated by the addition of cancer cells, and monitored by Aggro-Link software for at least 30 min. For experiments using inhibitors, aggregation was initiated after 10 min preincubation with these compounds.
To study the ability of the aspirin pro-drugs to inhibit TCIPA in WP cancer cell lines such as HT1080 cells (2×10^5/ml), CaCo2 cells (1.5×10^3/ml) or 59M cells (1×10^3/ml) were used in the presence or absence of aspirin nicotinate (ST0702), ISAS, orthonitrate and metanitrate at 300 and 500 μM. Platelet aggregation was initiated in washed platelets (WP) using HT1080 cells (2×10^5/ml), CaCo2 cells (1.5×10^3/ml) or 59M cells (1×10^3/ml). In addition, regular aspirin (300 and 500 uM) was used as control. Results were expressed in percent changes in maximal light transmission, with 100% representing light transmission of platelet medium alone. ST0702 is hydrolyzed by plasma esterases along two pathways liberating both aspirin and 5-nicotinate salicylate (ST0702 salicylate)(metabolite). The latter is further processed to isosorbide-5-nicotinate and eventually to nicotinic acid. The orthonitrate and metanitrate compounds liberate aspirin and nitric oxide (NO). ISAS meanwhile is hydrolysed to aspirin and salicylic acid. Aspirin (300 and 500 μM) was used in control experiments. Results were expressed in percent changes in maximal light transmission, with 100% representing light transmission of platelet medium alone. Further experiments were performed with ST0702 salicylate (500 μM).

[4] = system: MMP-2; test: MMP-2 release during 59M-induced TCIPA by zymography; type: cell-based, human; details: 300 uM, P>0.05
Description: Sample collection was carried out as previously described (Jurasz et al., 2001; Medina et al., 2006). Briefly, platelets at a concentration of 2.5×10^8/ml were placed into lumi-aggregometer and tumor cells (59M) were added at 1×10^3/ml. When platelet aggregation reached 50% maximal light transmission the reaction was terminated and samples were collected. The samples were then centrifuged at 900×g at room temperature for 10 min. After centrifugation, platelet releasates were collected and stored at −80 C until assayed for the presence of MMP activity by zymography.
Gelatin zymography was used to detect the activity of MMP-2 in the releasates as previously described (Alonso-Escolano et al., 2004; Jurasz et al., 2001; Medina et al., 2006). Briefly, samples were subjected to 10% sodium dodecyl sulfate-polyacrylamide gel electrophoresis (SDS-PAGE) with copolymerized gelatin (0.2%; Sigma Chemical Co, St. Louis, Mo.) incorporated as a substrate for gelatinolytic proteases. […] The gelatinolytic activities were detected as transparent bands against the background of Coomassie blue-stained gelatin. The intensities of the separate bands were analyzed and quantified using ChemiDoc XRS System (Bio-Rad, Hercules, Calif., U.S.A.). The gelatinolytic activity of each band was expressed as arbitrary units of density/mg protein.

[5] = 200 μM in PRP, collagen 5 μg/ml

With `CC(=O)Oc1ccccc1C(=O)O` [Aspirin] the “effect of eserine on inhibition of collagen-induced aggregation in PRP” value ([1]; compounds 300 μM, physostigmine (eserine) 10 μM) was “did not exert significant effects”, the “TxB2 suppression (TxB2 levels as percentage of baseline), in words” value [2] was “effective” and the “inhibition of TCIPA induced by HT1080” value [3] was “did not exert any significant effect”. The “inhibition of TCIPA induced by HT1080” value ([3]; listed as aspirin) was “did not exert a significant effect” and the “release of pro-MMP-2 during platelet aggregation induced by 59M cells” value [4] was “failed to prevent”.
`CC(=O)Oc1ccccc1C(=O)O[C@H]1CO[C@H]2[C@@H]1OC[C@H]2OC(=O)c1cccnc1` [ST0702, isosorbide-2-aspirinate-5-nicotinate] was tested, and the “inhibition of aggregation following 0-5 min preincubation” value [1, 5] was “No significant inhibition”, the “preincubation time at which inhibition is maximal” value [1, 5] was 15 to 20 min and the “TxB2 suppression (TxB2 levels as percentage of baseline), in words” value [2] was “effective”. For the same compound, the “inhibition of TCIPA induced by HT1080” value [3] was “consistently inhibited TCIPA”.
